Patent US20230398130A1, “METHODS AND COMPOSITIONS FOR DIFFERENTIATING STEM CELLS” (Massachusetts Institute of Technology, priority 2020, published 2023)

How the values were obtained:
[1] = test system: ISC-enriched organoids; experiment: Primary screen, 384-well 2.5-D organoid differentiation (ENR+CD, 6 days): basal lysozyme secretion (LYZ.NS); assay type: cell-based, murine; conditions: for Dose.FC.LYZ.NS: FC vs plate median; for SSMD.LYZ.NS: strictly standardized mean difference
Text: (§1) High-throughput screening.

[2] = test system: ISC-enriched organoids; experiment: Primary screen, 384-well 2.5-D organoid differentiation (ENR+CD, 6 days): carbachol-induced lysozyme secretion (LYZ.S); assay type: cell-based, murine; conditions: primary screen; for Dose.FC.LYZ.S: FC vs plate median; for Z.LYZ.S: standard z score; for SSMD.LYZ.S: strictly standardized mean difference
Text: as §1

[3] = test system: ISC-enriched organoids; experiment: Primary screen, 384-well 2.5-D organoid differentiation (ENR+CD, 6 days, Target Selective Inhibitor Library, vs whole-plate median): ATP (CellTiter-Glo 3D, CTG); conditions: for Dose.FC.CTG: FC vs plate median; for SSMD.CTG: strictly standardized mean difference
[4] = Dose 0.08 uM, primary screen, standard z score
[5] = Dose 0.40 uM, primary screen, standard z score
[6] = Dose 2.00 uM, primary screen, standard z score
[7] = Dose 10.00 uM, primary screen, standard z score
[8] = primary screen, 1st of the 4 dose lines of the treatment (dose not given)
[9] = primary screen, 2nd of the 4 dose lines of the treatment (dose not given)
[10] = primary screen, 3rd of the 4 dose lines of the treatment (dose not given)
[11] = primary screen, 4th of the 4 dose lines of the treatment (dose not given)
[12] = 1st of the 4 dose lines of the treatment (dose not given)
[13] = 2nd of the 4 dose lines of the treatment (dose not given)
[14] = 3rd of the 4 dose lines of the treatment (dose not given)
[15] = 4th of the 4 dose lines of the treatment (dose not given)
[16] = Dose 0.08 uM, standard z score of FC
[17] = Dose 0.40 uM, standard z score of FC
[18] = Dose 2.00 uM, standard z score of FC
[19] = Dose 10.00 uM, standard z score of FC

Q: Which results are given for `O=C(O)CCc1ccc(NCc2cccc(Oc3ccccc3)c2)cc1` [GW9508]?
A: Dose.FC.LYZ.NS ([1]; Dose 0.08 uM, primary screen): 0.075 log 2 fold change; Z.LYZ.NS [1, 4]: 0.650; Dose.FC.LYZ.NS ([1]; Dose 0.40 uM, primary screen): 0.019 log 2 fold change; Z.LYZ.NS [1, 5]: 0.169; Dose.FC.LYZ.NS ([1]; Dose 2.00 uM, primary screen): −0.011 log 2 fold change; Z.LYZ.NS [1, 6]: −0.092; Dose.FC.LYZ.NS ([1]; Dose 10.00 uM, primary screen): −0.040 log 2 fold change; Z.LYZ.NS [1, 7]: −0.350; SSMD.LYZ.NS [1, 8]: 0.536; SSMD.LYZ.NS [1, 9]: 0.122; SSMD.LYZ.NS [1, 10]: −0.064; SSMD.LYZ.NS [1, 11]: −0.358; Dose.FC.LYZ.S ([2]; Dose 0.08 uM): 0.067 log 2 fold change; Dose.FC.LYZ.S ([2]; Dose 0.40 uM): 0.049 log 2 fold change; Dose.FC.LYZ.S ([2]; Dose 2.00 uM): 0.000 log 2 fold change; Dose.FC.LYZ.S ([2]; Dose 10.00 uM): −0.045 log 2 fold change; Z.LYZ.S [2, 12]: 0.434; Z.LYZ.S [2, 13]: 0.316; Z.LYZ.S [2, 14]: 0.003; Z.LYZ.S [2, 15]: −0.289; SSMD.LYZ.S [2, 12]: 0.329; SSMD.LYZ.S [2, 13]: 0.225; SSMD.LYZ.S [2, 14]: 0.002; SSMD.LYZ.S [2, 15]: −0.176; Dose.FC.CTG ([3]; Dose 0.08 uM, primary screen): 0.063 log 2 fold change; Z.CTG [3, 4]: 0.151; Dose.FC.CTG ([3]; Dose 0.40 uM, primary screen): 0.174 log 2 fold change; Z.CTG [3, 5]: 0.417; Dose.FC.CTG ([3]; Dose 2.00 uM, primary screen): −0.001 log 2 fold change; Z.CTG [3, 6]: −0.003; Dose.FC.CTG ([3]; Dose 10.00 uM, primary screen): −0.059 log 2 fold change; Z.CTG [3, 7]: −0.140; SSMD.CTG [3, 8]: 0.128; SSMD.CTG [3, 9]: 0.384; SSMD.CTG [3, 10]: −0.003; SSMD.CTG [3, 11]: −0.134

Q: For `Cc1cnc(-c2cc(N3CCN(C(=O)CCS(C)(=O)=O)CC3)ncc2Cl)c(C)c1` [PF-5274857], which Dose.FC.LYZ.NS ([1]; Dose 0.08 uM, primary screen) is on record?
A: Its Dose.FC.LYZ.NS is 0.078 log 2 fold change.

Q: What about the Z.LYZ.NS [1, 16] of the same compound?
A: The Z.LYZ.NS was 0.683.

Q: And the Dose.FC.LYZ.NS ([1]; Dose 0.40 uM, primary screen)?
A: Its Dose.FC.LYZ.NS is −0.029 log 2 fold change.

Q: What about the Z.LYZ.NS [1, 17] of the same compound?
A: Its Z.LYZ.NS is −0.256.

Q: And the Dose.FC.LYZ.NS ([1]; Dose 2.00 uM, primary screen)?
A: The Dose.FC.LYZ.NS was 0.011 log 2 fold change.

Q: What about the Z.LYZ.NS [1, 18] of the same compound?
A: The Z.LYZ.NS was 0.094.

Q: And the Dose.FC.LYZ.NS ([1]; Dose 10.00 uM, primary screen)?
A: Its Dose.FC.LYZ.NS is 0.074 log 2 fold change.

Q: What about the Z.LYZ.NS [1, 19] of the same compound?
A: Its Z.LYZ.NS is 0.642.

Q: What about the Dose.FC.LYZ.S ([2]; Dose 0.08 uM) of the same compound?
A: The Dose.FC.LYZ.S was 0.187 log 2 fold change.

Q: And the Dose.FC.LYZ.S ([2]; Dose 0.40 uM)?
A: The Dose.FC.LYZ.S was −0.034 log 2 fold change.

Q: And the Dose.FC.LYZ.S ([2]; Dose 2.00 uM)?
A: Its Dose.FC.LYZ.S is 0.042 log 2 fold change.

Q: And the Dose.FC.LYZ.S ([2]; Dose 10.00 uM)?
A: Its Dose.FC.LYZ.S is 0.076 log 2 fold change.

Q: And the Dose.FC.CTG ([3]; Dose 0.08 uM, primary screen)?
A: Its Dose.FC.CTG is −0.101 log 2 fold change.

Q: And the Z.CTG [3, 16]?
A: The Z.CTG was −0.242.

Q: And the Dose.FC.CTG ([3]; Dose 0.40 uM, primary screen)?
A: The Dose.FC.CTG was −0.040 log 2 fold change.

Q: What about the Z.CTG [3, 17] of the same compound?
A: The Z.CTG was −0.096.

Q: What about the Dose.FC.CTG ([3]; Dose 2.00 uM, primary screen) of the same compound?
A: Its Dose.FC.CTG is 0.055 log 2 fold change.

Q: What about the Z.CTG [3, 18] of the same compound?
A: Its Z.CTG is 0.131.

Q: And the Dose.FC.CTG ([3]; Dose 10.00 uM, primary screen)?
A: The Dose.FC.CTG was −0.076 log 2 fold change.

Q: And the Z.CTG [3, 19]?
A: Its Z.CTG is −0.183.

Q: For `CC[C@@H]1/C=C/C=C/C[C@H](C)[C@H](O)[C@](C)(O)C(=O)[C@H](C)[C@@H](O)[C@H](C)C(=O)[C@H](C)[C@@H](O)[C@H](C)/C=C/C(=O)O[C@H]2[C@@H](C)[C@@H](CC1)O[C@@]1(CC[C@@H](C)[C@@H](C[C@H](C)O)O1)[C@@H]2C` [Oligomycin A], which Dose.FC.LYZ.NS ([1]; Dose 0.08 uM, primary screen) is on record?
A: The Dose.FC.LYZ.NS was −0.204 log 2 fold change.

Q: What about the Z.LYZ.NS [1, 16] of the same compound?
A: The Z.LYZ.NS was −1.778.

Q: And the Dose.FC.LYZ.NS ([1]; Dose 0.40 uM, primary screen)?
A: Its Dose.FC.LYZ.NS is −0.231 log 2 fold change.

Q: What about the Z.LYZ.NS [1, 17] of the same compound?
A: Its Z.LYZ.NS is −2.013.

Q: And the Dose.FC.LYZ.NS ([1]; Dose 2.00 uM, primary screen)?
A: Its Dose.FC.LYZ.NS is −0.213 log 2 fold change.

Q: What about the Z.LYZ.NS [1, 18] of the same compound?
A: Its Z.LYZ.NS is −1.857.

Q: And the Dose.FC.LYZ.NS ([1]; Dose 10.00 uM, primary screen)?
A: The Dose.FC.LYZ.NS was −0.223 log 2 fold change.

Q: What about the Z.LYZ.NS [1, 19] of the same compound?
A: The Z.LYZ.NS was −1.943.

Q: And the Dose.FC.LYZ.S ([2]; Dose 0.08 uM)?
A: Its Dose.FC.LYZ.S is −0.243 log 2 fold change.

Q: What about the Dose.FC.LYZ.S ([2]; Dose 0.40 uM) of the same compound?
A: Its Dose.FC.LYZ.S is −0.274 log 2 fold change.

Q: And the Dose.FC.LYZ.S ([2]; Dose 2.00 uM)?
A: The Dose.FC.LYZ.S was −0.269 log 2 fold change.

Q: What about the Dose.FC.LYZ.S ([2]; Dose 10.00 uM) of the same compound?
A: The Dose.FC.LYZ.S was −0.288 log 2 fold change.

Q: And the Dose.FC.CTG ([3]; Dose 0.08 uM, primary screen)?
A: The Dose.FC.CTG was −0.662 log 2 fold change.

Q: What about the Z.CTG [3, 16] of the same compound?
A: The Z.CTG was −1.581.

Q: What about the Dose.FC.CTG ([3]; Dose 0.40 uM, primary screen) of the same compound?
A: The Dose.FC.CTG was −0.706 log 2 fold change.

Q: What about the Z.CTG [3, 17] of the same compound?
A: Its Z.CTG is −1.685.

Q: And the Dose.FC.CTG ([3]; Dose 2.00 uM, primary screen)?
A: The Dose.FC.CTG was −0.946 log 2 fold change.

Q: And the Z.CTG [3, 18]?
A: Its Z.CTG is −2.261.

Q: And the Dose.FC.CTG ([3]; Dose 10.00 uM, primary screen)?
A: The Dose.FC.CTG was −1.244 log 2 fold change.

Q: And the Z.CTG [3, 19]?
A: Its Z.CTG is −2.972.
